In ChEMBL document CHEMBL5390223, “Strategies for the Discovery of Oxazolidinone Antibacterial Agents: Development and Future Perspectives” (J Med Chem, 2023):
≈ marks a conversion by molar mass, not a printed value.

Columns and labels:
Staphylococcus aureus [1] = experiment: Antibacterial activity against methicillin-resistant Staphylococcus aureus ATCC 33592 assessed as reduction in bacterial cell growth incubated for 18 hrs by microplate reader assay; assay type: functional
Enterococcus faecium [2] = experiment: Antimicrobial activity against Vancomycin-resistant Enterococcus faecium ATCC 700221 assessed as growth inhibition after 14 to 16 hrs by CLSI based broth dilution method; assay type: functional; details: time 14-16 hrs
Staphylococcus aureus [3] = experiment: Antibacterial activity against methicillin-susceptible Staphylococcus aureus […] assessed as reduction in bacterial cell growth incubated for 18 hrs by microplate reader assay; assay type: functional
Haemophilus influenzae = experiment: Antibacterial activity against Haemophilus influenzae assessed as reduction in bacterial cell growth measured after 24 hrs by broth microdilution method; assay type: functional
Moraxella catarrhalis [4] = experiment: Antibacterial activity against Moraxella catarrhalis ATCC 8176 assessed as inhibition in bacterial growth measured after 24 hrs by broth microdilution method; assay type: functional
Enterococcus = experiment: Antibacterial activity against vancomycin-resistant Enterococci assessed as reduction in bacterial cell growth incubated for 24 hrs by CLSI-microbroth dilution method; assay type: functional
Moraxella catarrhalis [5] = experiment: Antibacterial activity against Moraxella catarrhalis assessed as inhibition of bacterial growth measured after 24 hrs by broth microdilution method; assay type: functional
Escherichia coli [6] = experiment: Antibacterial activity against Escherichia coli assessed as inhibition of bacterial cell growth measured after 24 hrs by broth microdilution method; assay type: functional
Streptococcus pneumoniae [7] = experiment: Antibacterial activity against Streptococcus pneumoniae assessed as reduction in bacterial cell growth measured after 24 hrs by broth microdilution method; assay type: functional
Staphylococcus aureus [8] = experiment: Antibacterial activity against methicillin-susceptible Staphylococcus aureus infected in Swiss albino mouse assessed as reduction in bacterial growth by measuring effective dose administered orally 2 to 4 times a day for 2 consecutive days; assay type: functional; details: route po
Staphylococcus aureus [9] = experiment: Antibacterial activity against Staphylococcus aureus ATCC 25923 assessed as reduction in microbial growth incubated for 24 hrs by micro-plate reader assay; assay type: functional
Enterococcus faecalis [10] = experiment: Antibacterial activity against vancomycin-resistant Enterococcus faecalis […] infected in Swiss albino mouse assessed as reduction in bacterial growth by measuring effective dose administered orally 2 to 4 times a day for 2 consecutive days; assay type: functional; details: route po
Pseudomonas aeruginosa = experiment: Antibacterial activity against Pseudomonas aeruginosa PAO1 assessed as bacterial growth inhibition incubated for 18 hrs by two-fold serial dilution method; assay type: functional
Staphylococcus aureus [11] = experiment: Antibacterial activity against Staphylococcus aureus HG001 assessed as reduction in bacterial cell growth incubated for 18 hrs by two-fold serial dilution method; assay type: functional
[12] = test system: Mycobacterium tuberculosis; experiment: Antimycobacterial activity against Mycobacterium tuberculosis H37Rv assessed as reduction in bacterial cell growth incubated for 6 days by Alamar blue staining based assay; assay type: functional; details: 144 h, time 6 day
Escherichia coli [13] = experiment: Antibacterial activity against Escherichia coli Delta tolC mutant assessed as bacterial growth inhibition incubated for 24 hrs by broth microdilution method; assay type: functional
Enterococcus faecium [14] = experiment: Antibacterial activity against Enterococcus faecium ATCC 19434 assessed as reduction in microbial growth after 24 hrs by two-fold serial dilution method; assay type: functional
Staphylococcus aureus [15] = experiment: Antibacterial activity against Staphylococcus aureus ATCC 25923 assessed as reduction in bacterial growth incubated for 18 to 24 hrs by microbroth dilution method; assay type: functional; details: time 18-24 hrs
Streptococcus pneumoniae [16] = experiment: Antibacterial activity against Streptococcus pneumoniae assessed as reduction in bacterial cell growth inhibition by broth microdilution method; assay type: functional
[17] = target: T1, Amine oxidase [flavin-containing] B (Homo sapiens, UniProt P27338); experiment: Inhibition of MAO-B (unknown origin)
T1 sequence (P27338 whole entry): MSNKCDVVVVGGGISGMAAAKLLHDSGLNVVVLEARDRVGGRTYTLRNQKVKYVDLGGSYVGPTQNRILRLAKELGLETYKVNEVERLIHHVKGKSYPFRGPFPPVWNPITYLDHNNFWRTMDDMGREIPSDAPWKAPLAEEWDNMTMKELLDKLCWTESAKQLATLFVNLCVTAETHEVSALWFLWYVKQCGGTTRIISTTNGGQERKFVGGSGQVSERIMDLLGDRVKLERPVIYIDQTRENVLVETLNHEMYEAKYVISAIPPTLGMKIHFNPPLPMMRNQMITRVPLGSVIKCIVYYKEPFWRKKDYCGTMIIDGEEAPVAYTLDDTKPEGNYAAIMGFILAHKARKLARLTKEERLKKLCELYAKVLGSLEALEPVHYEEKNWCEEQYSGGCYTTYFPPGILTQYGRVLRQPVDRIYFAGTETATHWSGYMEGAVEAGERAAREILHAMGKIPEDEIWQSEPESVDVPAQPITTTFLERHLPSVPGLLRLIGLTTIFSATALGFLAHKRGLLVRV

Staphylococcus aureus [18] = experiment: Antimicrobial activity against methicillin-resistant Staphylococcus aureus assessed as microbial growth inhibition; assay type: functional
Enterococcus faecium [19] = experiment: Antimicrobial activity against Vancomycin-resistant Enterococcus faecium ATCC 51559 assessed as growth inhibition after 14 to 16 hrs by CLSI based broth dilution method; assay type: functional; details: time 14-16 hrs
Staphylococcus aureus [20] = experiment: Antibacterial activity against methicillin-susceptible Staphylococcus aureus assessed as reduction in bacterial cell growth; assay type: functional
Staphylococcus aureus [21] = experiment: Antibacterial activity against methicillin-resistant Staphylococcus aureus […] assessed as inhibition of bacterial growth incubated for 24 hrs by microplate reader assay; assay type: functional
Enterococcus faecalis [22] = experiment: Antibacterial activity against vancomycin-resistant Enterococcus faecalis ATCC 51299 assessed as reduction in bacterial cell growth incubated for 24 hrs by broth microdilution method; assay type: functional
Staphylococcus aureus [23] = experiment: Antibacterial activity against methicillin-susceptible Staphylococcus aureus infected in mouse assessed as reduction in bacterial growth by measuring effective dose administered orally; assay type: functional; details: route po
Staphylococcus aureus [24] = experiment: Antibacterial activity against methicillin-resistant Staphylococcus aureus infected in mouse assessed as reduction in bacterial growth by measuring effective dose administered orally; assay type: functional; details: route po
[25] = Oral bioavailability in rat at 2 mg/kg; assay type: ADME, organism-based; details: in vivo
[26] = Plasma protein binding in rat plasma at 10 mg/kg by LC-MS/MS analysis; assay type: ADME, organism-based; details: read-out: PPB (converted)
Enterococcus faecium [27] = experiment: Antibacterial activity against vancomycin-resistant Enterococcus faecium infected in mouse assessed as reduction in bacterial growth by measuring effective dose administered orally; assay type: functional; details: route po

O=C1O[C@@H](Cn2ccnn2)CN1c1ccc(N2CCOCC2)c(F)c1
MIC (Staphylococcus aureus [1]): 0.5 µg/mL (≈ 1.44 µM) | MIC (Enterococcus faecium [2]): 0.5 µg/mL (≈ 1.44 µM) | MIC (Staphylococcus aureus [3]): 0.5 µg/mL (≈ 1.44 µM)

O=C(NCC(=O)N1CCN(c2ccc(N3C[C@H](Cn4ccnn4)OC3=O)cc2F)CC1)c1ccc([N+](=O)[O-])o1
MIC (Haemophilus influenzae): 0.06 µg/mL (≈ 0.111 µM) | MIC (Moraxella catarrhalis [4]): 0.25 µg/mL (≈ 0.461 µM) | MIC (Enterococcus): 0.06 µg/mL (≈ 0.111 µM) | MIC (Moraxella catarrhalis [5]): 0.06 µg/mL (≈ 0.111 µM) | MIC (Escherichia coli [6]): 0.06 µg/mL (≈ 0.111 µM) | MIC (Streptococcus pneumoniae [7]): 0.06 µg/mL (≈ 0.111 µM)

CC(=O)NC[C@H]1CN(c2ccc(-c3cnc(-n4cncn4)nc3)c(F)c2)C(=O)O1
ED50 (Staphylococcus aureus [8]): 4.2 mg/kg | MIC (Staphylococcus aureus [9]): 0.125 µg/mL | ED50 (Enterococcus faecalis [10]): 8.6 mg/kg

CC(=O)NC[C@H]1CN(c2ccc(N3CCN(C(=O)OCn4cc(CNC(=O)C(CNC(=O)C(CNC(=O)CNC(=O)c5cccc(O)c5O)NC(=O)c5cccc(O)c5O)NC(=O)c5cccc(O)c5O)nn4)CC3)c(F)c2)C(=O)O1 (stereo partly drawn)
MIC (Pseudomonas aeruginosa): > 64 µM | MIC (Staphylococcus aureus [11]): 16 µM (≈ 18 µg/mL)

CC(=O)NC[C@H]1CN(c2ccc(N3CCN(C(=O)CN(CCCNC(=O)c4cccc(O)c4O)C(=O)c4cccc(O)c4O)CC3)c(F)c2)C(=O)O1
MIC (Pseudomonas aeruginosa): > 64 µM | MIC (Staphylococcus aureus [11]): 64 µM (≈ 46.3 µg/mL)

CC(=O)NC[C@H]1CN(c2ccc(-c3ccc(CO[C@@H]4COc5nc([N+](=O)[O-])cn5C4)nc3)c(F)c2)C(=O)O1
MIC [12]: 0.15 µg/mL (≈ 0.285 µM)

CC(=O)NC[C@H]1CN(c2ccc(N3CCN(C(=O)COCCOCCn4cc(CNC(=O)C(CCCCNC(=O)c5cccc(O)c5O)NC(=O)c5cccc(O)c5O)nn4)CC3)c(F)c2)C(=O)O1 (stereo partly drawn)
MIC (Pseudomonas aeruginosa): > 64 µM | MIC (Staphylococcus aureus [11]): 64 µM (≈ 61.6 µg/mL)

CSCC[C@H](NC(=O)[C@H](Cc1ccc(O)cc1)NC(=O)[C@H](CCCCN)NC(=O)[C@@H]1CCCN1C(=O)[C@H](CO)NC(=O)[C@H](Cc1c[nH]c2ccccc12)NCC(=O)N(CCCCNC(=O)c1cccc(O)c1O)C(=O)c1cccc(O)c1O)C(=O)NCC(=O)N1CCN(c2ccc(N3C[C@H](CNC(C)=O)OC3=O)cc2F)CC1
MIC (Escherichia coli [13]): 1 µM (≈ 1.59 µg/mL)

CC(=O)NC[C@H]1CN(c2ccc(N3CCN(C(=O)COCCOCCn4cc(CNC(=O)C(CNC(=O)C(CNC(=O)CNC(=O)c5cccc(O)c5O)NC(=O)c5cccc(O)c5O)NC(=O)c5cccc(O)c5O)nn4)CC3)c(F)c2)C(=O)O1 (stereo partly drawn)
MIC (Pseudomonas aeruginosa): > 64 µM | MIC (Staphylococcus aureus [11]): 64 µM (≈ 76.8 µg/mL)

CC(=O)NC[C@H]1CN(c2ccc(N3CCN(C(=O)OCn4cc(CNC(=O)C(CCCCNC(=O)c5cccc(O)c5O)NC(=O)c5cccc(O)c5O)nn4)CC3)c(F)c2)C(=O)O1 (stereo partly drawn)
MIC (Pseudomonas aeruginosa): > 64 µM | MIC (Staphylococcus aureus [11]): 64 µM (≈ 57 µg/mL)

O=C1C=CN(c2c(F)cc(N3C[C@H](CNc4ccon4)OC3=O)c(F)c2F)CC1 [CONTEZOLID]
MIC (Enterococcus faecium [14]): 0.06 µg/mL | MIC (Staphylococcus aureus [15]): 0.06 µg/mL (≈ 0.147 µM) | MIC (Streptococcus pneumoniae [16]): 0.06 µg/mL (≈ 0.147 µM) | IC50 [17]: 30.1 µM

CC(=O)NC[C@H]1CN(c2ccc(N3CCN(C(=O)CO)CC3)c(F)c2)C(=O)O1 [EPEREZOLID]
MIC (Staphylococcus aureus [18]): 1 µg/mL (≈ 2.54 µM) | MIC (Enterococcus faecium [19]): 1 µg/mL (≈ 2.54 µM) | MIC (Staphylococcus aureus [20]): 1 µg/mL (≈ 2.54 µM)

CC(=O)NC[C@H]1CN(c2ccc(N3CCN(Cc4ccc([N+](=O)[O-])o4)CC3)c(F)c2)C(=O)O1 [RANBEZOLID]
MIC (Staphylococcus aureus [21]): 0.125 µg/mL (≈ 0.271 µM) | MIC (Enterococcus faecalis [22]): 0.125 µg/mL (≈ 0.271 µM)

Cn1nnc(-c2ccc(-c3ccc(N4C[C@H](CO)OC4=O)cc3F)cn2)n1 [TEDIZOLID]
ED50 (Staphylococcus aureus [23]): 8.8 mg/kg | ED50 (Staphylococcus aureus [24]): 8.8 mg/kg | bioavailability [25]: 91% | fraction unbound [26]: 0.3 | ED50 (Enterococcus faecium [27]): 8.8 mg/kg
